Reference: patent publication EP1247803A2, “Indolinone compounds suitable for modulation of protein kinases” (Sugen, Inc., priority 1996, dated 1998)

Columns and labels:
[1] = target: T1, EGFR (Homo sapiens, UniProt P00533); test: EGFR ELISA assay (in vitro kinase activity, EGFR captured from A431 cell lysate); format: biochemical; set-up: concentration or dose not given beside the values
T1 construct: Add 7 ug A431 cell lysate per well (EGFR source); endogenous in cells; host or cells: A431
Summary of the method: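 EGFR from A431 lysate was captured on plates coated with anti-EGFR antibody. Compounds were added 30 min before a 5 min phosphorylation with 3 µM ATP/5 mM MnCl2, which was stopped with 20 mM EDTA. Phosphotyrosine was detected with rabbit anti-phosphotyrosine, then a peroxidase-conjugated secondary and ABTS/H2O2, read at 410 nm.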

[2] = tested on: MET; test: MET biochemical kinase assay; set-up: species or system human; concentration or dose not given beside the values
Summary of the method: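 MET from cell lysates captured on ELISA plates via rabbit anti-MET cytoplasmic-domain antibody; compounds added and kinase reaction run in ATP and divalent-metal buffer. Receptor phosphotyrosine detected with HRP-conjugated anti-phosphotyrosine antibody and TMB colorimetry.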

[3] = target: PDGF-R (Homo sapiens, UniProt P09619); test: PDGF-R ELISA; format: cell-based
From the text: A PDGF-R ELISA is described in International Patent Publication No. WO 96/40116, published December 19, 1996 by Tang et al.

Sequence of PDGF-R (P09619 33-1106, species assumed): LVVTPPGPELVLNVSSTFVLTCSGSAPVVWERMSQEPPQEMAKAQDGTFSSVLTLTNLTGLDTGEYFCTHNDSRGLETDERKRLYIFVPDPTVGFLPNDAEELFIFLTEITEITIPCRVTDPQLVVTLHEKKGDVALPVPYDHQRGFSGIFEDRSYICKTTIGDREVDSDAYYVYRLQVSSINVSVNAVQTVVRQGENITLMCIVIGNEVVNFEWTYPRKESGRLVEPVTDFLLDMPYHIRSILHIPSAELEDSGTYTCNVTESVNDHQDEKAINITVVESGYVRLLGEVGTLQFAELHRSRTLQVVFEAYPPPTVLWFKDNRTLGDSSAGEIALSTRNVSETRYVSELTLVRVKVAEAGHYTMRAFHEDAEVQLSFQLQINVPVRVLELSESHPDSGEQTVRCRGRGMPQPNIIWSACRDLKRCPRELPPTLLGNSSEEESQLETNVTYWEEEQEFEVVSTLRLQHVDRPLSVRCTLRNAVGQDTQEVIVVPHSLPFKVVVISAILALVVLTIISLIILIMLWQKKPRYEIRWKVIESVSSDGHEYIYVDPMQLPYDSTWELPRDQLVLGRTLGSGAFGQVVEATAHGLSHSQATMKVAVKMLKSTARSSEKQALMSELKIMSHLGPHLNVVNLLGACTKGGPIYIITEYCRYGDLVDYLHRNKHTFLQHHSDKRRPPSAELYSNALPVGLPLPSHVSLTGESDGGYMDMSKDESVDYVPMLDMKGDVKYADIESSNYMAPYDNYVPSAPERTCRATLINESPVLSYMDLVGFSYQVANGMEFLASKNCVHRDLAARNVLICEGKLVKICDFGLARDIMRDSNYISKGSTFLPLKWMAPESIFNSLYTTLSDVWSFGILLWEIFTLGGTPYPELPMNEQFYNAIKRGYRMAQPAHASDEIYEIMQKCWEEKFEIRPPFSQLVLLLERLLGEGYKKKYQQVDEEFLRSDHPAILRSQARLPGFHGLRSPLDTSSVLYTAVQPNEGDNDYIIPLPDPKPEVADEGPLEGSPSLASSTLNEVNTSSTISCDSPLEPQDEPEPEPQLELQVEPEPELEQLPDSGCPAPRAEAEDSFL
T1 sequence (P00533 25-1210): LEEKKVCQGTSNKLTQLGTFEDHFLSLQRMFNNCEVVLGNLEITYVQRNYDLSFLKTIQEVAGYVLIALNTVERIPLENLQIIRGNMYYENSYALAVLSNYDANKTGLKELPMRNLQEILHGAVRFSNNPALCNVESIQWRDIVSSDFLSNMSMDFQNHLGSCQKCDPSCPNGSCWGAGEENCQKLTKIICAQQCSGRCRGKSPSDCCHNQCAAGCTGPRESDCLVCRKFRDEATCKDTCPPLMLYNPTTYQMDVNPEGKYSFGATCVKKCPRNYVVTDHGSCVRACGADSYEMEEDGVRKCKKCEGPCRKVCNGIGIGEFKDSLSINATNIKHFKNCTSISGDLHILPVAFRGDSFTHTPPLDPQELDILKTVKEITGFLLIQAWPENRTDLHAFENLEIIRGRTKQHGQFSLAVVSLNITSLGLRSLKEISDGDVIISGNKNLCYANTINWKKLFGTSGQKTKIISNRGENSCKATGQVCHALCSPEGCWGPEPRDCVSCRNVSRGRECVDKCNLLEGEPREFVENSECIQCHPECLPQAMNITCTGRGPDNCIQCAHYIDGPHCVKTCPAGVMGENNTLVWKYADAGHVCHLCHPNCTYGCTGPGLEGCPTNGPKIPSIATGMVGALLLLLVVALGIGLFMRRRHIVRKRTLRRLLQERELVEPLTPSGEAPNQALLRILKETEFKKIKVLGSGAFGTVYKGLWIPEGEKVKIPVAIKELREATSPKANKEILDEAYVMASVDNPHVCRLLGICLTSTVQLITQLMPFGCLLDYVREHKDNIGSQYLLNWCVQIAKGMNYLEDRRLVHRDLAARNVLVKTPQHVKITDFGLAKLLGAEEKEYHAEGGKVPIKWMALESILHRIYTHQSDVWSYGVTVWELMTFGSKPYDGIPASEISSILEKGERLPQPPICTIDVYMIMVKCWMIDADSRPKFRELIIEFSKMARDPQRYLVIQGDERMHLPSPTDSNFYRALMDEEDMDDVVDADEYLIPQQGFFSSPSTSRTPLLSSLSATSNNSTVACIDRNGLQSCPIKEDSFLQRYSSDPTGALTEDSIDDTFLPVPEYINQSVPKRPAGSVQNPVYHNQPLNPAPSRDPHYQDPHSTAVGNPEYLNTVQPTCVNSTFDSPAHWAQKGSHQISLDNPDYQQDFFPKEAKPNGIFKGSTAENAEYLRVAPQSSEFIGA

SMILES	Biochem EGFR %Inhibition [1] [%]	Met Kinase % Inhibition [2] [%]	PDGF Kinase %Inhibition [3] [%]
O=C1Nc2c(Br)cc(Br)cc2C1=Cc1c[nH]c2ccccc12 [10717/A06]	-7.8	31.7	
Cn1cccc1C=C1C(=O)Nc2ccc(CCCl)cc21 [10717/G04]	6.0	10.9	
O=C1Nc2ccc(CCCl)cc2C1=Cc1ccc(F)cc1 [10717/G05]	-0.1	4.7	
O=C1Nc2ccc(CCCl)cc2C1=Cc1c[nH]c2ccccc12 [10717/G06]	-3.4	34.0	
Cc1ccc(C=C2C(=O)Nc3ccc(CCCl)cc32)s1 [10717/G07]	13.1	7.5	
O=C1Nc2ccc(CCCl)cc2C1=Cc1ccc(Br)cc1 [10717/G08]	36.4	10.9	
O=C1Nc2ccc(CCCl)cc2C1=Cc1ccc[nH]1 [10717/G09]	24.9	19.1	
COc1cccc(O)c1C=C1C(=O)Nc2ccc(CCCl)cc21 [10717/G10]	2.4	30.9	
Cc1c(Br)ccc2c1C(=C1C(=O)Nc3ccc(F)cc31)C(=O)N2 [10726/C08]	7.5	46.8	21.4
Cc1c(Br)ccc2c1C(=C1C(=O)Nc3ccccc31)C(=O)N2 [10726/C09]	-14.3	48.5	26.5
CCc1ccc(C=C2C(=O)Nc3ccc(Br)c(C)c32)s1 [10726/C10]	2.8	36.7	16.4
COc1ccc(C=C2C(=O)Nc3ccc(Br)c(C)c32)cc1 [10726/C11]	4.8	34.7	51.1
CCOC(=O)c1[nH]c(C=C2C(=O)Nc3ccc(S(=O)(=O)NC)cc32)c(C(=O)OC)c1C [10726/D03]	-5.4	52.1	21.4
CNS(=O)(=O)c1ccc2c(c1)C(=Cc1cc(C)c(O)c(C(C)(C)C)c1)C(=O)N2 [10726/D04]	-20.1	62.9	34.1
CNS(=O)(=O)c1ccc2c(c1)C(=Cc1ccc(Br)o1)C(=O)N2 [10726/D05]	-8.1	51.2	39.1
CNS(=O)(=O)c1ccc2c(c1)C(=Cc1cn(C)cc1C)C(=O)N2 [10726/D06]	-24.4	42.8	28.4
CNS(=O)(=O)c1ccc2c(c1)C(=Cc1cc(O)c3c(c1O)CCCC3)C(=O)N2 [10726/D07]	18.5	84.6	-81.0
CNS(=O)(=O)c1ccc2c(c1)C(=C1C(=O)Nc3ccc(F)cc31)C(=O)N2 [10726/D08]	-11.4	39.5	22.1
CNS(=O)(=O)c1ccc2c(c1)C(=C1C(=O)Nc3ccccc31)C(=O)N2 [10726/D09]	-6.5	45.7	22.1
CCc1ccc(C=C2C(=O)Nc3ccc(S(=O)(=O)NC)cc32)s1 [10726/D10]	-6.5	35.3	32.2
CNS(=O)(=O)c1ccc2c(c1)C(=Cc1ccc(OC)cc1)C(=O)N2 [10726/D11]	-6.3	9.6	30.9
CCOC(=O)c1[nH]c(C=C2C(=O)Nc3ccc(S(=O)(=O)Nc4ccc(C(F)(F)F)cc4)cc32)c(C(=O)OC)c1C [10726/E03]	-15.9	62.4	20.2
Cc1cc(C=C2C(=O)Nc3ccc(S(=O)(=O)Nc4ccc(C(F)(F)F)cc4)cc32)cc(C(C)(C)C)c1O [10726/E04]	53.0	85.5	12.6
O=C1Nc2ccc(S(=O)(=O)Nc3ccc(C(F)(F)F)cc3)cc2C1=Cc1ccc(Br)o1 [10726/E05]	5.5	71.0	4.3

SMILES	Biochem EGFR %Inhibition [1] [%]	Met Kinase % Inhibition [2] [%]	PDGF Kinase %Inhibition [3] [%]
Cc1cn(C)cc1C=C1C(=O)Nc2ccc(S(=O)(=O)Nc3ccc(C(F)(F)F)cc3)cc21 [10726/E06]	-20.6	-7.4	41.7
O=C1Nc2ccc(S(=O)(=O)Nc3ccc(C(F)(F)F)cc3)cc2C1=Cc1cc(O)c2c(c1O)CCCC2 [10726/E07]	20.5	84.0	-12.1
O=C1Nc2ccc(F)cc2C1=C1C(=O)Nc2ccc(S(=O)(=O)Nc3ccc(C(F)(F)F)cc3)cc21 [10726/E08]	-8.5	58.9	34.1
O=C1Nc2ccccc2C1=C1C(=O)Nc2ccc(S(=O)(=O)Nc3ccc(C(F)(F)F)cc3)cc21 [10726/E09]	10.0	50.3	34.7
CCc1ccc(C=C2C(=O)Nc3ccc(S(=O)(=O)Nc4ccc(C(F)(F)F)cc4)cc32)s1 [10726/E10]	-9.0	41.5	37.9
COc1ccc(C=C2C(=O)Nc3ccc(S(=O)(=O)Nc4ccc(C(F)(F)F)cc4)cc32)cc1 [10726/E11]	-14.1	34.5	30.3
CCOC(=O)c1[nH]c(C=C2C(=O)Nc3ccc(S(=O)(=O)N4CCOCC4)cc32)c(C(=O)OC)c1C [10726/F03]	-17.4	54.1	5.6
Cc1cc(C=C2C(=O)Nc3ccc(S(=O)(=O)N4CCOCC4)cc32)cc(C(C)(C)C)c1O [10726/F04]	33.4	93.5	18.3
O=C1Nc2ccc(S(=O)(=O)N3CCOCC3)cc2C1=Cc1ccc(Br)o1 [10726/F05]	-26.8	51.2	-17.8
Cc1cn(C)cc1C=C1C(=O)Nc2ccc(S(=O)(=O)N3CCOCC3)cc21 [10726/F06]	-24.1	16.2	17.0
O=C1Nc2ccc(S(=O)(=O)N3CCOCC3)cc2C1=Cc1cc(O)c2c(c1O)CCCC2 [10726/F07]	76.2	96.1	-99.4
O=C1Nc2ccc(F)cc2C1=C1C(=O)Nc2ccc(S(=O)(=O)N3CCOCC3)cc21 [10726/F08]	-21.5	67.3	28.4
O=C1Nc2ccccc2C1=C1C(=O)Nc2ccc(S(=O)(=O)N3CCOCC3)cc21 [10726/F09]	-22.8	66.8	-2.6
CCc1ccc(C=C2C(=O)Nc3ccc(S(=O)(=O)N4CCOCC4)cc32)s1 [10726/F10]	-17.4	51.4	9.4
COc1ccc(C=C2C(=O)Nc3ccc(S(=O)(=O)N4CCOCC4)cc32)cc1 [10726/F11]	-16.8	57.6	25.2
CCOC(=O)c1[nH]c(C=C2C(=O)Nc3ccc(CCCl)cc32)c(C(=O)OC)c1C [10726/G03]	-17.2	26.8	4.3
Cc1cc(C=C2C(=O)Nc3ccc(CCCl)cc32)cc(C(C)(C)C)c1O [10726/G04]	60.6	72.8	14.5
O=C1Nc2ccc(CCCl)cc2C1=Cc1ccc(Br)o1 [10726/G05]	5.1	81.1	6.2
Cc1cn(C)cc1C=C1C(=O)Nc2ccc(CCCl)cc21 [10726/G06]	-37.5	19.9	-26.6
O=C1Nc2ccc(CCCl)cc2C1=Cc1cc(O)c2c(c1O)CCCC2 [10726/G07]	54.4	94.8	-107.6
O=C1Nc2ccc(F)cc2C1=C1C(=O)Nc2ccc(CCCl)cc21 [10726/G08]	-2.7	39.1	14.5
O=C1Nc2ccccc2C1=C1C(=O)Nc2ccc(CCCl)cc21 [10726/G09]	3.3	42.4	13.2
CCc1ccc(C=C2C(=O)Nc3ccc(CCCl)cc32)s1 [10726/G10]	6.0	26.8	-7.0
COc1ccc(C=C2C(=O)Nc3ccc(CCCl)cc32)cc1 [10726/G11]	1.3	11.8	-7.7
